Key:
[1] = tested on: PlexA1-NRP1 interactions; assay: proximity ligation assay on U118MG tumor sections; format: in vivo, human cells in mouse; conditions: proximity ligation assay on tumor tissue, treated mice; p = 0.0051, Mann Whitney
Protocol: To address the biological consequences of MTP-PlexA1-mediated inhibition of PlexA1 we used the U118MG-Luc glioma cell line genetically engineered to express the luciferase reporter gene. […] Cells were then grafted subcutaneously and tumor growth was monitored every 5 days for a total period of 20 days. […] The quantitative analysis of the cumulated luminescent signal acquired all along the protocol confirmed the strong reduction of tumor development translating into a marked 75% reduction of the averaged luminescent signal at the end point (Figure 6C). […] In order to clarify the mechanism by which MTP-PlexA1 is exerting tumor growth inhibition we collected tumors and analyzed them histologically.
(B) Representative photographs illustrating the kinetic of tumor growth over 20 days in the two experimental groups. […] (D) Waterfall plot of best response representing the percent change in tumor volume of individual treated animals (grey bars, n = 10) compared to the average tumor volume increased determined in the control group (dark bars, n = 10). […] (F) Representative microphotographs and related quantification of PH3 positive cells in tumor slices (G) Representative microphotographs and related quantification of CD31 positive regions in tumor slices (% CD31 per μm² of tumors).

[2] = tested on: PlexA4-PlexA1 complex; assay: co-immunoprecipitation of Plexin-A4 with PlexA1 in U373MG cells; format: cell-based, human; conditions: 10^−7 M peptide 1 h
Protocol: (C) Rac-1 activation assay in resting condition and after Sema3A-induced Rac-1 activation in U373 MG cells. (D) Western blot analysis of phosphorylated Akt, total Akt and tubulin in U373MG cells treated with the vehicle (LDS 72 μM), Sema3A (100 ng/ml) or Sema3A + MTP-PlexA1 (10^−7 M). The lower panel is showing the quantification of the p-Akt/Akt ratio in the different conditions. (E) MTP-PlexA1 decreases VEGFR-2 phosphorylation induced by VEGF (100 ng/ml) in HUVEC cells. […]
in 20 mM sodium acetate (pH 4.5) at a flow rate of 5 μl/ min 10–7 M of MTP-PlexA1 or Vehicle (LDS, 72 µM) during until desired surface densities, measured in response 1 h. Stimulation was done with 100ng/ml Semaphorin 3A units, were reached. […] First antibodies (Rabbit anti-phospho-the elution buffer containing detergent removed non- akt, Rabbit anti-akt, Cell Signaling #4060 and #9272 biotinylated peptides rendering the chip ready for analysis respectively) and mouse anti-tubulin α (Cell Signaling with monomeric biot-MTP-PlexA1. Blank surfaces were #2144) were incubated overnight at 4°C (+ anti-NRP1, used for background corrections. Injections of 30 µl anti-PlexA4 Abcam). […] Images of the immuno-blots cells per well in a 6-well plate and serum starved overnight. were acquired and analyzed thanks to the GENE GNOME Before protein extraction, the cells were treated either with apparatus (Syngene Bio Imaging, UK).

TLPAIVGIGGGGGLLLLVIVAVLIAYKRK [MTP-PlexA1, synthetic transmembrane peptide mimicking the TMD of PlexA1]
change of PlexA1-NRP1 interactions in tumor sections [1]: −48.5%
change of PlexA4 co-immunoprecipitated with PlexA1, Sema3A-induced ([2]; Sema3A 100 ng/ml 30 min): −35.5%
reduction of PlexA4 co-immunoprecipitated with PlexA1, VEGF ([2]; VEGF 100 ng/ml 10 min): 35.4%
